# From PubChem BioAssay AID1919017 (Molecular Pharmacology Branch, DTP, NCI, 2023)
# Tested on: SW1271 complex spheroids with HUVEC/MSC, growth, % test/control
# Assay: Anticancer human tumor SW1271 cell line growth inhibition [AhR];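 note: spheroids exposed to agents for 7 days before readout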
# Settings: for IC50: curve of first compound; for viability, T/C: stronger effect = lower value
# Summary of the method: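 Spheroids combined tumor cells with HUVEC endothelial cells and human MSCs as stroma. AhR antagonists were paired with standard or investigational drugs, each dosed in half-log steps down from near clinical Cmax, or from 10 microM where Cmax was unknown.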
# [1] = second compound 0.1 µM, first compound 0.0316 µM
# [2] = second compound 0.1 µM, first compound 0.1 µM
# [3] = second compound 0.1 µM, first compound 0.316 µM
# [4] = second compound 0.1 µM, first compound 1 µM
# [5] = second compound 0.1 µM, first compound 3.16 µM
# [6] = second compound 0.1 µM, first compound 10 µM
# [7] = second compound 0.316 µM, first compound 0.0316 µM
# [8] = second compound 0.316 µM, first compound 0.1 µM
# [9] = second compound 0.316 µM, first compound 0.316 µM
# [10] = second compound 0.316 µM, first compound 1 µM
# [11] = second compound 0.316 µM, first compound 3.16 µM
# [12] = second compound 0.316 µM, first compound 10 µM
# [13] = second compound 1 µM, first compound 0.0316 µM
# [14] = second compound 1 µM, first compound 0.1 µM
# [15] = second compound 1 µM, first compound 0.316 µM
# [16] = second compound 1 µM, first compound 1 µM
# [17] = second compound 1 µM, first compound 3.16 µM
# [18] = second compound 1 µM, first compound 10 µM
# [19] = second compound 3.16 µM, first compound 0.0316 µM
# [20] = second compound 3.16 µM, first compound 0.1 µM
# [21] = second compound 3.16 µM, first compound 0.316 µM
# [22] = second compound 3.16 µM, first compound 1 µM
# [23] = second compound 3.16 µM, first compound 3.16 µM
# [24] = second compound 3.16 µM, first compound 10 µM
# [25] = second compound 10 µM, first compound 0.0316 µM
# [26] = second compound 10 µM, first compound 0.1 µM
# [27] = second compound 10 µM, first compound 0.316 µM
# [28] = second compound 10 µM, first compound 1 µM
# [29] = second compound 10 µM, first compound 3.16 µM
# [30] = second compound 10 µM, first compound 10 µM
smiles,measurement,setting,value
CC1(C)CCC(CN2CCN(c3ccc(C(=O)NS(=O)(=O)c4ccc(NCC5CCOCC5)c([N+](=O)[O-])c4)c(Oc4cnc5[nH]ccc5c4)c3)CC2)=C(c2ccc(Cl)cc2)C1 + Cc1ccccc1N=Nc1ccc(NC(=O)c2ccnn2C)c(C)c1,IC50,second compound 0.1 µM,> 10 µM
same,IC50,second compound 0.316 µM,> 10 µM
same,IC50,second compound 1 µM,> 10 µM
same,IC50,second compound 3.16 µM,> 10 µM
same,IC50,second compound 10 µM,> 10 µM
same,"viability, T/C",[1],96.4%
same,"viability, T/C",[2],99.5%
same,"viability, T/C",[3],100%
same,"viability, T/C",[4],79.4%
same,"viability, T/C",[5],88.2%
same,"viability, T/C",[6],94.1%
same,"viability, T/C",[7],110%
same,"viability, T/C",[8],78.6%
same,"viability, T/C",[9],102%
same,"viability, T/C",[10],99.3%
same,"viability, T/C",[11],85.4%
same,"viability, T/C",[12],90%
same,"viability, T/C",[13],110%
same,"viability, T/C",[14],88%
same,"viability, T/C",[15],113%
same,"viability, T/C",[16],92.9%
same,"viability, T/C",[17],95.1%
same,"viability, T/C",[18],128%
same,"viability, T/C",[19],91.9%
same,"viability, T/C",[20],105%
same,"viability, T/C",[21],87.5%
same,"viability, T/C",[22],76.1%
same,"viability, T/C",[23],78.3%
same,"viability, T/C",[24],112%
same,"viability, T/C",[25],102%
same,"viability, T/C",[26],99.3%
same,"viability, T/C",[27],98.4%
same,"viability, T/C",[28],86%
same,"viability, T/C",[29],83%
same,"viability, T/C",[30],93.3%
CCN(c1cc(-c2ccc(CN3CCOCC3)cc2)cc(C(=O)NCc2c(C)cc(C)[nH]c2=O)c1C)C1CCOCC1 + Cc1ccccc1N=Nc1ccc(NC(=O)c2ccnn2C)c(C)c1,IC50,second compound 0.1 µM,> 3 µM
same,IC50,second compound 0.316 µM,> 3 µM
same,IC50,second compound 1 µM,> 3 µM
same,IC50,second compound 3.16 µM,> 3 µM
same,IC50,second compound 10 µM,> 3 µM
same,"viability, T/C","second compound 0.1 µM, first compound 0.00949 µM",115%
same,"viability, T/C","second compound 0.1 µM, first compound 0.03 µM",111%
same,"viability, T/C","second compound 0.1 µM, first compound 0.0949 µM",117%
same,"viability, T/C","second compound 0.1 µM, first compound 0.3 µM",107%
same,"viability, T/C","second compound 0.1 µM, first compound 0.949 µM",118%
same,"viability, T/C","second compound 0.1 µM, first compound 3 µM",110%
same,"viability, T/C","second compound 0.316 µM, first compound 0.00949 µM",115%
same,"viability, T/C","second compound 0.316 µM, first compound 0.03 µM",118%
same,"viability, T/C","second compound 0.316 µM, first compound 0.0949 µM",106%
same,"viability, T/C","second compound 0.316 µM, first compound 0.3 µM",123%
same,"viability, T/C","second compound 0.316 µM, first compound 0.949 µM",105%
same,"viability, T/C","second compound 0.316 µM, first compound 3 µM",107%
same,"viability, T/C","second compound 1 µM, first compound 0.00949 µM",117%
same,"viability, T/C","second compound 1 µM, first compound 0.03 µM",110%
same,"viability, T/C","second compound 1 µM, first compound 0.0949 µM",122%
same,"viability, T/C","second compound 1 µM, first compound 0.3 µM",122%
same,"viability, T/C","second compound 1 µM, first compound 0.949 µM",98%
same,"viability, T/C","second compound 1 µM, first compound 3 µM",88%
same,"viability, T/C","second compound 3.16 µM, first compound 0.00949 µM",99.3%
same,"viability, T/C","second compound 3.16 µM, first compound 0.03 µM",114%
same,"viability, T/C","second compound 3.16 µM, first compound 0.0949 µM",102%
same,"viability, T/C","second compound 3.16 µM, first compound 0.3 µM",148%
same,"viability, T/C","second compound 3.16 µM, first compound 0.949 µM",120%
same,"viability, T/C","second compound 3.16 µM, first compound 3 µM",108%
same,"viability, T/C","second compound 10 µM, first compound 0.00949 µM",96.5%
same,"viability, T/C","second compound 10 µM, first compound 0.03 µM",103%
same,"viability, T/C","second compound 10 µM, first compound 0.0949 µM",91.7%
same,"viability, T/C","second compound 10 µM, first compound 0.3 µM",111%
same,"viability, T/C","second compound 10 µM, first compound 0.949 µM",103%
same,"viability, T/C","second compound 10 µM, first compound 3 µM",118%
COc1cc(Nc2ncc3c(n2)-c2ccc(Cl)cc2C(c2c(F)cccc2OC)=NC3)ccc1C(=O)O + Cc1ccccc1N=Nc1ccc(NC(=O)c2ccnn2C)c(C)c1,IC50,second compound 0.1 µM,> 10 µM
same,IC50,second compound 0.316 µM,> 10 µM
same,IC50,second compound 1 µM,8.76 µM
same,IC50,second compound 3.16 µM,> 10 µM
same,IC50,second compound 10 µM,> 10 µM
same,"viability, T/C",[1],73.8%
same,"viability, T/C",[2],65.6%
same,"viability, T/C",[3],77.2%
same,"viability, T/C",[4],52.5%
same,"viability, T/C",[5],61%
same,"viability, T/C",[6],50.9%
same,"viability, T/C",[7],72.5%
same,"viability, T/C",[8],67.1%
same,"viability, T/C",[9],79.2%
same,"viability, T/C",[10],65.9%
same,"viability, T/C",[11],62.7%
same,"viability, T/C",[12],53.2%
same,"viability, T/C",[13],81.8%
same,"viability, T/C",[14],81%
same,"viability, T/C",[15],74.4%
same,"viability, T/C",[16],72%
same,"viability, T/C",[17],85.5%
same,"viability, T/C",[18],46.4%
same,"viability, T/C",[19],87.3%
same,"viability, T/C",[20],72.5%
same,"viability, T/C",[21],66%
same,"viability, T/C",[22],57.9%
same,"viability, T/C",[23],68.9%
same,"viability, T/C",[24],60.2%
same,"viability, T/C",[25],65.3%
same,"viability, T/C",[26],94.1%
same,"viability, T/C",[27],65.7%
same,"viability, T/C",[28],60.5%
same,"viability, T/C",[29],75.8%
same,"viability, T/C",[30],53.8%
Cn1ncnc1C1c2n[nH]c(=O)c3cc(F)cc(c23)NC1c1ccc(F)cc1 (stereo not given) + Cc1ccccc1N=Nc1ccc(NC(=O)c2ccnn2C)c(C)c1,IC50,second compound 0.1 µM,> 0.1 µM
same,IC50,second compound 0.316 µM,> 0.1 µM
same,IC50,second compound 1 µM,> 0.1 µM
same,IC50,second compound 3.16 µM,> 0.1 µM
same,IC50,second compound 10 µM,> 0.1 µM
same,"viability, T/C","second compound 0.1 µM, first compound 0.000316 µM",118%
same,"viability, T/C","second compound 0.1 µM, first compound 0.001 µM",120%
same,"viability, T/C","second compound 0.1 µM, first compound 0.00316 µM",133%
same,"viability, T/C","second compound 0.1 µM, first compound 0.01 µM",109%
same,"viability, T/C",[1],117%
same,"viability, T/C",[2],116%
same,"viability, T/C","second compound 0.316 µM, first compound 0.000316 µM",124%
same,"viability, T/C","second compound 0.316 µM, first compound 0.001 µM",127%
same,"viability, T/C","second compound 0.316 µM, first compound 0.00316 µM",109%
same,"viability, T/C","second compound 0.316 µM, first compound 0.01 µM",118%
same,"viability, T/C",[7],121%
same,"viability, T/C",[8],108%
same,"viability, T/C","second compound 1 µM, first compound 0.000316 µM",105%
same,"viability, T/C","second compound 1 µM, first compound 0.001 µM",93.8%
same,"viability, T/C","second compound 1 µM, first compound 0.00316 µM",117%
same,"viability, T/C","second compound 1 µM, first compound 0.01 µM",117%
same,"viability, T/C",[13],99.3%
same,"viability, T/C",[14],114%
same,"viability, T/C","second compound 3.16 µM, first compound 0.000316 µM",96.1%
same,"viability, T/C","second compound 3.16 µM, first compound 0.001 µM",127%
same,"viability, T/C","second compound 3.16 µM, first compound 0.00316 µM",124%
same,"viability, T/C","second compound 3.16 µM, first compound 0.01 µM",122%
same,"viability, T/C",[19],97.5%
same,"viability, T/C",[20],131%
same,"viability, T/C","second compound 10 µM, first compound 0.000316 µM",118%
same,"viability, T/C","second compound 10 µM, first compound 0.001 µM",124%
same,"viability, T/C","second compound 10 µM, first compound 0.00316 µM",110%
same,"viability, T/C","second compound 10 µM, first compound 0.01 µM",94.5%
same,"viability, T/C",[25],90.5%
same,"viability, T/C",[26],82.9%
NS(=O)(=O)OCC1CC(n2ccc3c(NC4CCc5ccccc54)ncnc32)CC1O (stereo not given) + Cc1ccccc1N=Nc1ccc(NC(=O)c2ccnn2C)c(C)c1,IC50,second compound 0.1 µM,> 10 µM
same,IC50,second compound 0.316 µM,> 10 µM
same,IC50,second compound 1 µM,> 10 µM
same,IC50,second compound 3.16 µM,> 10 µM
same,IC50,second compound 10 µM,> 10 µM
same,"viability, T/C",[1],129%
same,"viability, T/C",[2],161%
same,"viability, T/C",[3],118%
same,"viability, T/C",[4],101%
same,"viability, T/C",[5],91.2%
same,"viability, T/C",[6],82.5%
same,"viability, T/C",[7],135%
same,"viability, T/C",[8],165%
same,"viability, T/C",[9],112%
same,"viability, T/C",[10],95.9%
same,"viability, T/C",[11],103%
same,"viability, T/C",[12],86.3%
same,"viability, T/C",[13],157%
same,"viability, T/C",[14],132%
same,"viability, T/C",[15],151%
same,"viability, T/C",[16],88.2%
same,"viability, T/C",[17],80.1%
same,"viability, T/C",[18],78.5%
same,"viability, T/C",[19],157%
same,"viability, T/C",[20],206%
same,"viability, T/C",[21],111%
same,"viability, T/C",[22],89.7%
same,"viability, T/C",[23],89.1%
same,"viability, T/C",[24],83.2%
same,"viability, T/C",[25],128%
same,"viability, T/C",[26],132%
same,"viability, T/C",[27],123%
same,"viability, T/C",[28],94%
same,"viability, T/C",[29],77.4%
same,"viability, T/C",[30],84.9%
